In ChEMBL document CHEMBL1201862, “PubChem BioAssay data set” (2004):
Values joined by “and” are separate entries in the source; they are usually repeats but may differ in a detail not shown here. Identical values can stand only once.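 Each compound was tested at five concentrations against cells in 96-well plates for 48 hours. At the GI50, growth is halved.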 Active and inactive are the calls of the source. No stated cut-off is given here; in the data, active = GI50 up to about 1.1 µM and inactive = higher.

Columns and labels:
Assay in all cases: NCI anticancer screen, dose series, 48 h
SW-620 = system: SW-620
DMS-273 = system: DMS-273
HL-60 = system: HL-60
Malme-3M = system: Malme-3M
CCRF-CEM = system: CCRF-CEM
DLD-1 = system: DLD-1
M19-MEL = system: M19-MEL
HOP-18 = system: HOP-18
NCI-H226 = system: NCI-H226
786-0 = system: 786-0
DMS-114 = system: DMS-114
LOX IMVI = system: LOX IMVI
HCC 2998 = system: HCC 2998
SK-MEL-28 = system: SK-MEL-28
A498 = system: A498
MCF7 = system: MCF7
RXF 631 = system: RXF 631
Hs-578T = system: Hs-578T
SR = system: SR
LXFL 529 = system: LXFL 529
SF-539 = system: SF-539
MOLT-4 = system: MOLT-4
NCI-H460 = system: NCI-H460
NCI/ADR-RES = system: NCI/ADR-RES
CAKI-1 = system: CAKI-1
KM-20L2 = system: KM-20L2
PC-3 = system: PC-3
HCT-15 = system: HCT-15
COLO 205 = system: COLO 205
MDA-N = system: MDA-N
UO-31 = system: UO-31
OVCAR-5 = system: OVCAR-5
XF498 = system: XF498
SNB-78 = system: SNB-78
K562 = system: K562
MDA-MB-435 = system: MDA-MB-435
EKVX = system: EKVX
HT-29 = system: HT-29
SF-268 = system: SF-268
M14 = system: M14
OVCAR-4 = system: OVCAR-4
IGROV-1 = system: IGROV-1
SF-295 = system: SF-295
OVCAR-8 = system: OVCAR-8
SK-MEL-5 = system: SK-MEL-5
OVCAR-3 = system: OVCAR-3
UACC-257 = system: UACC-257
NCI-H522 = system: NCI-H522
KM12 = system: KM12
SK-MEL-2 = system: SK-MEL-2
RPMI-8226 = system: RPMI-8226
TK-10 = system: TK-10
UACC-62 = system: UACC-62
SNB-19 = system: SNB-19
U-251 = system: U-251
A549 = system: A549
DU-145 = system: DU-145
MDA-MB-231 = system: MDA-MB-231
T47D = system: T47D
HCT-116 = system: HCT-116
BT-549 = system: BT-549
RXF 393 = system: RXF 393
SNB-75 = system: SNB-75
HOP-92 = system: HOP-92
ACHN = system: ACHN
NCI-H23 = system: NCI-H23
SN12C = system: SN12C
HOP-62 = system: HOP-62
SK-OV-3 = system: SK-OV-3

In the case of `COc1cccc2c1C(=O)c1c(O)c3c(c(O)c1C2=O)C[C@@](O)(C(C)=O)C[C@@H]3OC1CC(N)C(O)C(C)O1` (stereo partly drawn), the GI50 (SW-620) is reported as < 16.7 nM (active) and 22.9 nM (active), the GI50 (DMS-273) is reported as 0.0889 µM (active) and the GI50 (HL-60) is reported as < 11.4 nM (active) and 12.3 nM (active). For the same compound, the GI50 (Malme-3M) was 30.3 nM (active) and 54.3 nM (active), the GI50 (CCRF-CEM) was < 10 nM (active) and 12.8 nM (active) and the GI50 (DLD-1) was 0.309 µM (active). The GI50 (M19-MEL) was 0.08 µM (active), the GI50 (HOP-18) was 0.118 µM (active) and the GI50 (NCI-H226) was 24 nM (active) and 34.6 nM (active). The GI50 (786-0) was < 17.8 nM (active) and 32.6 nM (active), the GI50 (DMS-114) was 0.0371 µM (active) and the GI50 (LOX IMVI) was < 13.1 nM (active) and 24.9 nM (active). For the same compound, the GI50 (HCC 2998) was 154 nM (active) and 167 nM (active), the GI50 (SK-MEL-28) was 167 nM (active) and 303 nM (active) and the GI50 (A498) was 146 nM (active) and 197 nM (active). For the same compound, the GI50 (MCF7) was 0.00889 µM (active), the GI50 (RXF 631) was 0.115 µM (active) and the GI50 (Hs-578T) was 168 nM (active) and 192 nM (active). For the same compound, the GI50 (SR) was 8.39 nM (active) and < 13.5 nM (active), the GI50 (LXFL 529) was 0.0743 µM (active) and the GI50 (SF-539) was 39.1 nM (active) and 48.3 nM (active). The GI50 (MOLT-4) was < 10 nM (active) and 6.34 nM (active), the GI50 (NCI-H460) was < 10 nM (active) and 5.94 nM (active) and the GI50 (NCI/ADR-RES) was 2.42 µM (inactive) and 4.61 µM (inactive). The GI50 (CAKI-1) was 81.8 nM (active) and 99.1 nM (active), the GI50 (KM-20L2) was 0.194 µM (active) and the GI50 (PC-3) was 48 nM (active) and 78.9 nM (active). For the same compound, the GI50 (HCT-15) was 0.721 µM and 0.689 µM, the GI50 (COLO 205) was 156 nM (active) and 142 nM (active) and the GI50 (MDA-N) was 168 nM (active) and 98.9 nM (active). For the same compound, the GI50 (UO-31) was 412 nM (active) and 413 nM (active), the GI50 (OVCAR-5) was 201 nM (active) and 238 nM (active) and the GI50 (XF498) was 0.069 µM (active). The GI50 (SNB-78) was 0.292 µM (active).
With `CCN(CC)CCNc1ccc2nnn3c4ccc([N+](=O)[O-])cc4c(=O)c1c23` the GI50 (SW-620) was 3 µM (inactive), the GI50 (DMS-273) was 5.16 µM (inactive) and the GI50 (HL-60) was 6.52 µM (inactive). For the same compound, the GI50 (K562) was 6.7 µM (inactive), the GI50 (Malme-3M) was 9.12 µM (inactive) and the GI50 (CCRF-CEM) was 4.91 µM (inactive). For the same compound, the GI50 (MDA-MB-435) was > 100 µM (inactive), the GI50 (EKVX) was 14.1 µM (inactive) and the GI50 (DLD-1) was 3.93 µM (inactive). The GI50 (HT-29) was 3.89 µM (inactive), the GI50 (SF-268) was 6.37 µM (inactive) and the GI50 (M14) was 11.8 µM (inactive). For the same compound, the GI50 (M19-MEL) was > 20.5 µM (inactive), the GI50 (OVCAR-4) was 9.18 µM (inactive) and the GI50 (HOP-18) was 2.8 µM (inactive). The GI50 (NCI-H226) was 3.34 µM (inactive), the GI50 (786-0) was 4.34 µM (inactive) and the GI50 (DMS-114) was 8.53 µM (inactive). For the same compound, the GI50 (LOX IMVI) was 4.58 µM (inactive), the GI50 (IGROV-1) was 5.38 µM (inactive) and the GI50 (HCC 2998) was 25.8 µM (inactive). For the same compound, the GI50 (SK-MEL-28) was 14 µM (inactive), the GI50 (SF-295) was 5.82 µM (inactive) and the GI50 (OVCAR-8) was 4.76 µM (inactive). The GI50 (A498) was 6.3 µM (inactive), the GI50 (SK-MEL-5) was 3.62 µM (inactive) and the GI50 (OVCAR-3) was > 79.6 µM (inactive). The GI50 (MCF7) was 3.67 µM (inactive), the GI50 (RXF 631) was 4.11 µM (inactive) and the GI50 (UACC-257) was 10 µM (inactive). For the same compound, the GI50 (Hs-578T) was 14.1 µM (inactive), the GI50 (NCI-H522) was 8.15 µM (inactive) and the GI50 (SR) was 5.01 µM (inactive). For the same compound, the GI50 (KM12) was 6.28 µM (inactive), the GI50 (LXFL 529) was 4.98 µM (inactive) and the GI50 (SK-MEL-2) was 9.75 µM (inactive). For the same compound, the GI50 (RPMI-8226) was 6.15 µM (inactive), the GI50 (TK-10) was 11.6 µM (inactive) and the GI50 (UACC-62) was > 36.4 µM (inactive). The GI50 (SF-539) was 3.35 µM (inactive), the GI50 (MOLT-4) was 2.13 µM (inactive) and the GI50 (NCI-H460) was 3.93 µM (inactive). The GI50 (SNB-19) was 6.43 µM (inactive), the GI50 (NCI/ADR-RES) was 7.16 µM (inactive) and the GI50 (U-251) was 5.21 µM (inactive). The GI50 (CAKI-1) was 4.14 µM (inactive), the GI50 (A549) was 4.47 µM (inactive) and the GI50 (KM-20L2) was 4.94 µM (inactive). The GI50 (PC-3) was 5.26 µM (inactive), the GI50 (DU-145) was 7.69 µM (inactive) and the GI50 (MDA-MB-231) was 3.94 µM (inactive). For the same compound, the GI50 (T47D) was > 100 µM (inactive), the GI50 (HCT-116) was 3.55 µM (inactive) and the GI50 (BT-549) was > 100 µM (inactive). For the same compound, the GI50 (RXF 393) was 4.78 µM (inactive), the GI50 (SNB-75) was 4.91 µM (inactive) and the GI50 (HCT-15) was 6.93 µM. For the same compound, the GI50 (HOP-92) was 11.3 µM (inactive), the GI50 (COLO 205) was 4.85 µM (inactive) and the GI50 (MDA-N) was 71.8 µM (inactive). For the same compound, the GI50 (UO-31) was 3.44 µM (inactive), the GI50 (ACHN) was 3.28 µM (inactive) and the GI50 (OVCAR-5) was 13.2 µM (inactive). For the same compound, the GI50 (NCI-H23) was 10.8 µM (inactive), the GI50 (SN12C) was 7.05 µM (inactive) and the GI50 (XF498) was 6.25 µM (inactive). For the same compound, the GI50 (SNB-78) was 9.71 µM (inactive), the GI50 (HOP-62) was 2.28 µM (inactive) and the GI50 (SK-OV-3) was > 37.6 µM (inactive).
